Experimental findings from PubChem BioAssay AID463131 (The Scripps Research Institute Molecular Screening Center, 2010) are described below.

The target of this assay is Protein phosphatase methylesterase 1 (Homo sapiens) (UniProt Q9Y570). Nature of the assay: PME-1 inhibition in intact cells, late-stage follow-up, cell-based, fluorescence (AID 463131). As to conditions: fluorescent probe labeling of PME-1, at 0.5 µM, hits give high values.

SMILES strings stand for the structures.

Sequence of Protein phosphatase methylesterase 1 (Homo sapiens) (Q9Y570 whole entry, looked up): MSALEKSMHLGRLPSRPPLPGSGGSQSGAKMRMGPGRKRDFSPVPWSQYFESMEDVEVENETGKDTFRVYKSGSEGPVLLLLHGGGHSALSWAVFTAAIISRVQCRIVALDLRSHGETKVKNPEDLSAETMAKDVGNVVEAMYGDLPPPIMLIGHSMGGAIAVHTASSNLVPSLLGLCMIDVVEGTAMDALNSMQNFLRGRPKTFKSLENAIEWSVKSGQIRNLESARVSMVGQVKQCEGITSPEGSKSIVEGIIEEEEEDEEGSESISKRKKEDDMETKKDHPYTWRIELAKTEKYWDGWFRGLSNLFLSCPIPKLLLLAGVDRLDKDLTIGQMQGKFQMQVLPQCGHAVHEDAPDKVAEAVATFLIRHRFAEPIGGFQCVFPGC

As usually defined, the inhibition is the relative decrease from the control value, in per cent. Take `COC(=O)N1C(=O)[C@](c2ccccc2)(C2CCCC2)N1C(=O)OC`: the inhibition was 100%. Turning to `COC(=O)N1C(=O)[C@](c2ccccc2)(C2CCCCC2)N1C(=O)OC`, the inhibition is 100%.
